For experiment [1], the system named is GAPDH. Briefly: GAPDH activity normalized to total protein in PMs from NC and HFD mice. The settings on record: LPS (300 ng/ml) + 1400W (50 μM) for 4 hrs. It counts as cell-based, mouse. The method, then: Peritoneal macrophages were isolated from 8-10-week-old ΔE1HK1 and littermate control WT mice by peritoneal lavage as described previously (Ray and Dittel, 2010). Briefly, mice were euthanized and the peritoneal cavity was injected with PBS supplemented with 5% FBS using a 27g needle. The abdominal wall was gently agitated to dislodge peritoneal cells. Using a fresh 25g needle, the peritoneal lavage (PBS and peritoneal cells) was aspirated and collected. Cells were then centrifuged at 500 g for 10 min and re-suspended in 1 mL of complete RPMI (Corning) supplemented with 10% FBS (Atlanta Biologicals), 2 mM glutamine (HyClone), 1 mM HEPES (Corning) and 1 mM pyruvate (Corning). Stimulation with LPS (Invivogen) was performed the next day. 300 ng/ml of LPS was given to the cells for 4-6 hrs with or without the following drugs; OT (50 μM), 6-AN (1 mM), 1400W (50 μM), or CGP3466 (50 nM).
(§1) The following kits were used according to the manufacturer's instructions: Promega NADP/NADPH quantification kit (G9081) and […] (G9071); Glyceraldehyde-3-Phosphate Dehydrogenase Activity Assay kit (abcam); ELISAs for IL-1β (DY401), IL-6 […].

The test system of experiment [2] is PMs. Briefly: IL-1β ELISA from media of PMs from NC and HFD mice. It counts as cell-based, mouse. To be noted: LPS (300 ng/ml) 6 hrs and ATP (2.5 mM) 30 min, 1400W. (ELISA stands for enzyme-linked immunosorbent assay.)
The test system of experiment [3] is BMDMs. Briefly: Inflammatory cytokine mRNA expression (quantitative RT-PCR) in BMDMs. Type of experiment: cell-based, mouse. The settings on record: 4 hrs LPS (200 ng/ml) + 1400W (50 μM). The method, then: (§2) BMDMs were isolated from ΔE1HK1 and WT mice as previously reported (Rodriguez et al., 2019). Briefly, bone marrow was isolated from the tibia and femur of 8-10-week-old mice by puncturing one end of the femur and tibia with a 27g needle and placing it in a 0.5 ml tube with a hole punched in the bottom. The 0.5 ml tube containing the bone was then placed in a 1.75 ml tube and centrifuged at 5,000×g for 3.5 minutes. Bone marrow was then collected into the 1.75 ml tube and resuspend in 1 ml of RBC lysis buffer (abcam) for 1 minute and then transferred to a 50 ml tube with 4 ml RBC lysis buffer and incubated for 4 minutes. Next, 35 ml of PBS was added and centrifuged at 300×g for 5 min and supernatant was then decanted and cell pellet was re-suspended in complete RPMI with 20 ng/ml mCSF (Preprotech). Cells were counted using a hemocytometer and plated in 10 cm tissue culture plates at a density of 3-million cells/plate. Cells were cultured with 20 ng/mL mCSF to induce differentiation into BMDMs. Media was changed every 2 days and BMDMs were harvested by scraping on day 6 and plated in 12 well plates at a density of 1-million cells/well for mRNA extraction experiments. BMDMs were stimulated in the same manner as peritoneal macrophages (LPS dose for BMDMs was 200 ng/ml).
(§3) RNA was isolated from cells or tissues using RNA-STAT60 (Teltest) followed by chloroform extraction and precipitation. Reverse transcription was carried out using qScript cDNA Synthesis Kit (Quanta Bio). The resulting cDNA was amplified quantitatively using PerfeCTa SYBR Green Mix (Quanta Bio) on a 7500 Fast Real-time PCR System (Applied Biosystems). The relative gene expression was determined using differences in Ct values between gene of interest and house-keeping control genes. Complete list of primers can be found in Key Reagents Table (Table 1).

In experiment [4] the test system is BMDMs. Briefly: Seahorse ECAR trace of BMDMs. It counts as cell-based, mouse. The settings on record: 5 hrs LPS (200 ng/ml) ±1400W (50 μM). The method, then:
The day before the assay, the Seahorse cartridge was placed in the XF calibrant and incubated overnight at 37° C. On the day of the assay, cells were seeded into the Seahorse 96-well plate at 15,000 cells/80 μl per well for HepG2 cells or 100,000 cells/80 μl per well for BMDMs. The plates were incubated at RT for 1 hour in glucose free complete DMEM or RPMI without bicarbonate or phenol-red to allow even distribution of cells across the well floor. Before placing the sample plates in the Seahorse XF96 Analyzer, medium volume was adjusted to 175 μl in each well. 11 mM or 25 mM glucose for HepG2 cells or BMDMs respectively, Oligomycin at 2 μM, CCCP at 10 μM, and 2DG at […] each, diluted in DMEM, were injected sequentially into each well including control wells, containing only medium, following the standard Seahorse protocol. For acute injection of LPS, the first port of the drug cartridge was replaced with LPS at 200 ng/ml.

Experiment [5] relates to GAPDH. Briefly: GAPDH IP and TMT switch S-nitrosylation western blot in BMDMs. Type of experiment: cell-based, mouse. To be noted: LPS (200 ng/ml) treated BMDMs ±1400W. The method, then: GAPDH immunoprecipitation of HepG2 and BMDM cells was performed and nitrosylated cysteines were replaced with covalent binding of TMT using Pierce S-Nitrosylation western blot kit according to manufactures protocol. Briefly, free cysteines were blocked with MMTS reagent, lysates were treated with iodoTMT/ascorbate to induce replacement of unstable S-NO with stable S-TMT moiety. Western blot was then run on the TMT-replaced lysates and probed with GAPDH (dilution 1:8,000) and anti-TMT (dilution 1:1000).
(A western blot detects proteins with antibodies after separation by electrophoresis.)

For experiment [6], the system named is ΔE1HK1 mice. Briefly: In vivo LPS i.p. injection with 1400W: splenic mRNA and serum ELISA of inflammatory cytokines. On the set-up: species or system mouse. The settings on record: LPS (15 mg/kg) i.p. + 1400W (10 mg/kg) i.p. The method, then:
as §3
LPS induced sepsis model in mice was approved by Northwestern University Institutional Animal Care and Use Committee. For short term LPS induced cytokine quantification, C57/B16 mice (aged 10-12 weeks) were treated i.p. with or without 1400W (10 mg/kg) for 2 hrs prior to i.p. treatment with ultrapure 05:B55 LPS from Invivogen (15 mg/kg) i.p. for 4 hours. Whole blood samples were harvested via cardiac puncture after mice were euthanized. Cytokine production in serum from whole blood was measured using the Mouse IL-1β (DY401), IL-6 (DY406), and TNFα (DY410) ELISAs from R&D. For survival studies, Crude 05:B55 LPS (Sigma) was administrated i.p. at a sub-lethal dose of 15 mg/kg and mice were monitored over 72 hrs, every 2-4 hrs for survival and signs of deterioration to determine humane endpoints (Shrum et al., 2014).

Experiment [7] deals with GAPDH (Mus musculus, UniProt P16858). Briefly: GAPDH activity normalized to total protein in BMDMs. To be noted: LPS (200 ng/ml) + 1400W (50 μM). Further details: endogenous in cells. Type of experiment: cell-based. The method, then:
as §2, with “Media was changed every 2 days and BMDMs were harvested by scraping on day 6 and plated in 12 well plates at a density of 1-million cells/well for mRNA extraction experiments. BMDMs were stimulated in the same manner as peritoneal macrophages (LPS dose for BMDMs was 200 ng/ml).” left out
as §1

Sequence of GAPDH (Mus musculus, UniProt P16858) (P16858 whole entry): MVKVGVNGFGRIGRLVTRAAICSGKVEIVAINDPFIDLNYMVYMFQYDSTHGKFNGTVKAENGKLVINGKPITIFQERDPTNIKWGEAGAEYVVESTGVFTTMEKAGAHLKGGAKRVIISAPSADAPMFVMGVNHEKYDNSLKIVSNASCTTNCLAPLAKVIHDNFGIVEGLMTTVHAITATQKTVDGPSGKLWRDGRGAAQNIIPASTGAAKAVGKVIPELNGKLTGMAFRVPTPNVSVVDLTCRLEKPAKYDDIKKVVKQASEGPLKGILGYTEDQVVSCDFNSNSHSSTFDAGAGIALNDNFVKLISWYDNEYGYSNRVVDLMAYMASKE

For the compound `CC(N)=NCc1cccc(CN)c1.Cl.Cl` [1400W], in experiment [1], the “lower GAPDH activity in PMs of HFD mice” value was “rescued”. Further, the “elevation in IL-1β in HFD PMs (ELISA)” value in experiment [2] is recorded as “reversed”. In experiment [3], the “hyper-inflammatory response of ΔE1HK1 BMDMs, IL-1β mRNA” value was “reversal”; the “hyper-inflammatory response of ΔE1HK1 BMDMs, IL-6 mRNA” value was “reversal”; the “hyper-inflammatory response of ΔE1HK1 BMDMs, TNFα mRNA” value is on record as “reversal”. Further, in experiment [4], the “differences in ECAR between ΔE1HK1 and WT BMDMs” value was “eliminated the differences”. The “higher GAPDH nitrosylation in BMDMs from ΔE1HK1 mice” value in experiment [5] is “reversible”. Further, in experiment [6], the “hyper-inflammatory response in ΔE1HK1 mice, serum ELISA IL-1β” value is “rescue”; the “hyper-inflammatory response in ΔE1HK1 mice, serum ELISA IL-6” value is given as “rescue”; the “hyper-inflammatory response in ΔE1HK1 mice, serum ELISA TNFα” value is listed as “rescue”; the “hyper-inflammatory response in ΔE1HK1 mice, splenic IL-1β mRNA” value was “rescue”. Further, in experiment [6], the “hyper-inflammatory response in ΔE1HK1 mice, splenic IL-6 mRNA” value is recorded as “rescue” and the “hyper-inflammatory response in ΔE1HK1 mice, splenic TNFα mRNA” value is recorded as “rescue”. Further, the “GAPDH activity of ΔE1HK1 BMDMs” value in experiment [7] was “restored to WT levels”.
